We go through 15 compounds from the NIST ThermoML archive (doi:10.1021/je200628n).

This data set is described as follows: activity coefficient (dimensionless); of the first substance listed, at infinite dilution; xn = mol fraction of the nth substance listed. The following applies: 101 kPa, Liquid, Chromatography, x1 = 0.

± gives the expanded uncertainty stated by the source.

Take `CCCCC` [pentane] + NCCCCCCCCCCCCN: the activity coefficient runs as follows: (348.25 K) 4.76 ± 0.24; (353.15 K) 4.74 ± 0.24; (358.25 K) 4.68 ± 0.24; (363.21 K) 4.63 ± 0.24.
For the compound `CCCCC` [pentane] + NCCCCCCCCCCN, the activity coefficient reads like this: (3.9 K) 353 ± 18; (4.022 K) 348 ± 18; (4.331 K) 338 ± 18.
Regarding `CCCCC` [pentane] + NCCCCCCCCN, the activity coefficient (328.21 K) was determined as 1.37 ± 0.065, the activity coefficient (338.23 K) was 1.27 ± 0.059, the activity coefficient (343.19 K) stood at 1.22 ± 0.056 and the activity coefficient (348.25 K) came to 1.16 ± 0.053.
Consider `CCCO` [propan-1-ol] + NCCCCCCCCCCCCN, for which the activity coefficient (348.25 K) amounted to 0.931 ± 0.042, the activity coefficient (353.15 K) was 0.975 ± 0.043, the activity coefficient (358.25 K) was 1.04 ± 0.046 and the activity coefficient (363.21 K) stood at 1.09 ± 0.049.
`CCCO` [propan-1-ol] + NCCCCCCCCCCN: the activity coefficient is 0.622 ± 0.033 (338.2 K), 0.731 ± 0.036 (348.15 K) and 0.772 ± 0.037 (353.22 K).
With `CCCO` [propan-1-ol] + NCCCCCCCCN, the activity coefficient (328.15 K) worked out at 0.567 ± 0.032, the activity coefficient (338.15 K) was found to be 0.58 ± 0.032, the activity coefficient (343.15 K) is 0.593 ± 0.032 and the activity coefficient (348.15 K) was 0.614 ± 0.033.
Turning to `CCCOC(C)=O` [propyl ethanoate] + NCCCCCCCCCCCCN, the activity coefficient runs as follows: (348.25 K) 1.55 ± 0.076; (353.15 K) 1.45 ± 0.07; (358.25 K) 1.35 ± 0.064; (363.21 K) 1.26 ± 0.058.
For the compound `CCCOC(C)=O` [propyl ethanoate] + NCCCCCCCCCCN, the activity coefficient runs as follows: (338.2 K) 1.39 ± 0.066; (348.15 K) 1.11 ± 0.05; (353.22 K) 0.991 ± 0.044.
As to `CCCOC(C)=O` [propyl ethanoate] + NCCCCCCCCN, the activity coefficient is, setting by setting: (328.15 K) 1.29 ± 0.06; (338.15 K) 1.08 ± 0.048; (343.15 K) 0.997 ± 0.044; (348.15 K) 0.929 ± 0.042.
As for `ClC(Cl)(Cl)Cl` [tetrachloromethane] + NCCCCCCCCCCCCN, the activity coefficient is, setting by setting: (348.25 K) 2.37 ± 0.12; (353.15 K) 2.28 ± 0.12; (358.25 K) 2.06 ± 0.11; (363.21 K) 1.98 ± 0.1.
Take `ClC(Cl)(Cl)Cl` [tetrachloromethane] + NCCCCCCCCCCN: the activity coefficient reads like this: (338.2 K) 2.25 ± 0.12; (348.15 K) 2.05 ± 0.1; (353.22 K) 1.98 ± 0.1.
As for `ClC(Cl)(Cl)Cl` [tetrachloromethane] + NCCCCCCCCN, the activity coefficient worked out at 2.06 ± 0.11 (328.15 K), 1.66 ± 0.082 (338.15 K), 1.51 ± 0.073 (343.15 K) and 1.37 ± 0.065 (348.15 K).
`Cc1ccccc1` [toluene] + NCCCCCCCCCCCCN: the activity coefficient by setting is: (348.25 K) 2.6 ± 0.13; (353.15 K) 2.51 ± 0.13; (358.25 K) 2.42 ± 0.12; (363.21 K) 2.33 ± 0.12.
Consider `Cc1ccccc1` [toluene] + NCCCCCCCCCCN, for which the activity coefficient is, setting by setting: (338.2 K) 2.52 ± 0.13; (348.15 K) 2.23 ± 0.12; (353.22 K) 2.13 ± 0.11.
With `Cc1ccccc1` [toluene] + NCCCCCCCCN, the activity coefficient (328.15 K) came to 2.39 ± 0.12, the activity coefficient (338.15 K) is 2.17 ± 0.11, the activity coefficient (343.15 K) stood at 2.11 ± 0.11 and the activity coefficient (348.15 K) was 2.07 ± 0.11.
